Source: PMC6627553, “Cardiac Rhythm and Molecular Docking Studies of Ion Channel Ligands with Cardiotoxicity in Zebrafish” (Cells, 2019)
pIC50: −log10 of the molar value. “Also recorded” adds a separate entry of the source. Structures can show the parent of a compound that is named as a salt. Where two headings read alike, the source gives them in different places.

How the values were obtained:
[1] = tested on: zebrafish embryos aged 72 hpf; assay: Chronology method: heart beat recorded at 5 min intervals over 30 min; conditions: 10 μM; for Cardiac phenotype by time chronology method: 10 sec recordings at 5 min intervals over 30 min, methylcellulose mounted; for Atrium and ventricle rhythmicity pattern after 30 min incubation: compared to control
Protocol: (§1) Stock concentrations for each compound in the library are 10 mM with 100 µL volume. The compounds are diluted with distilled water to make working solutions at 10 µM. For drug treatment, 20 µM of the compound stock was dropped onto the fish mounted with the same volume (around 50 µL) of 3% methylcellulose for a final working concentration of 10 µM. The heart beats from three zebrafish larvae were used for the first round of screening. […] The heart beats from five zebrafish larvae for each compound were recorded for 10 sec at 5 min intervals over a period of 30 min.
(§2) After drug administration, we video recorded the heart beat for 10 sec at 5 min intervals, over a period of 30 min.

[2] = tested on: zebrafish embryos aged 72 hpf; assay: End-point screen of ion channel ligand library for cardiac rhythm (ImageJ-based); conditions: 10 μM, 30 min incubation
Protocol: Seventy-two hpf larvae were used for this study.
The compounds are diluted with distilled water to make working solutions at 10 µM. For drug treatment, 20 µM of the compound stock was dropped onto the fish mounted with the same volume (around 50 µL) of 3% methylcellulose for a final working concentration of 10 µM. The heart beats from three zebrafish larvae were used for the first round of screening. […] The heart beats from five zebrafish larvae for each compound were recorded for 10 sec at 5 min intervals over a period of 30 min.
For the cardiac rhythm assay, we mounted zebrafish embryos aged at 72 hpf with 3% methylcellulose to reduce their movement, and later applied chemicals from an ion channel ligand library (containing 70 compounds) at 10 μM to measure the changes in cardiac rhythm according to our previous ImageJ-based method [25]. In order to prevent the potential side effects of anesthesia on heart rate or rhythmicity, we used methylcellulose to mount zebrafish larvae for videotaping.
Initially, we used an image-based end-point method to screen the potential effects of an ion channel ligand library on heart beat rhythm alterations. […] In order to screen a potential compound with high cardiotoxicity at a low dose, we performed chemical screening at 10 μM as a starting point. […] A heartbeat that exceeds these ranges is considered abnormal.

[3] = tested on: zebrafish embryos aged 72 hpf; assay: Dose response experiment for lowest effective dose (LOED), time chronology method; conditions: 1 µM and 5 µM
Protocol: Three different doses, 1, 5 and 10 μM, of the tested compounds were given to zebrafish embryos aged 72 hpf, and the heart beat rate and rhythmicity were recorded for comparison by the time chronology method.
(§3) Five zebrafish larvae aged at 72 h post-fertilization (hpf) were used in this assay.

[4] = tested on: zebrafish embryos aged 72 hpf; conditions: in vivo
Protocol: as §1, §2

hERG channel = conditions: cited from earlier work
cardiac K+ channels = conditions: cited from earlier work
[5] = tested on: zebrafish larvae aged 72 hpf; assay: Washout experiment for heart rate and rhythmicity; conditions: washout for 30 min and 1 h
Protocol: as §3

rats = conditions: cited from earlier work

SMILES | Cardiac phenotype by time chronology method [1] | Atrium and ventricle rhythmicity pattern after 30 min incubation [1] | Heart rhythm phenotype in first step screening (end-point screen) [2] | also measured
COC(=O)c1c(C)[nH]c(C)c1C(=O)c1ccccc1Cc1ccccc1 [compound 1346, FPL-64176] | arrhythmia | arrhythmic beating | ventricular fibrillation or total heart stop; also recorded: irregular heart rhythmicity | Heart rhythm phenotype in first step screening (end-point screen) ([2]; listed as FPL-64176): heart completely stopped; Effect on cardiac rhythmicity at low concentration [3]: did not change; Effect on heart beat rate at low concentration [3]: did not change the heart beat rate
O=C1NCN(c2ccccc2)C12CCN(CCCC(c1ccc(F)cc1)c1ccc(F)cc1)CC2 [compound 1377, Fluspirilene] | arrhythmia from 5 min onwards | arrhythmic, with one peak of the ventricle being followed by two of the atrium | ventricular fibrillation or total heart stop; also recorded: irregular heart rhythmicity; also recorded: total heart stop | Cardiac phenotype by time chronology method ([1]; listed as fluspirilene): arrhythmia occurred from 5 min onwards and became more severe over time; Heart rhythm phenotype in first step screening (end-point screen) ([2]; listed as fluspirilene): heart completely stopped
O=c1[nH]c2ccccc2n1C1CCN(CCCC(c2ccc(F)cc2)c2ccc(F)cc2)CC1 [compound 1360, Pimozide] | atrioventricular block occurred, subsequently becoming more severe over time | arrhythmic, with one peak in the ventricle being followed by two in the atrium | ventricular fibrillation or total heart stop; also recorded: irregular heart rhythmicity | Cardiac phenotype by time chronology method [4]: atrioventricular block from 10 min onwards; Concentration giving significant inhibition of hERG channel currents (hERG channel; as low as): 3 nM; pIC50 (hERG channel; read-out: IC50 of hERG channel currents): 7.74; Reported cardiac adverse effect (cardiac K+ channels): acquired long QT syndrome and ventricle arrhythmia; Reversibility of cardiotoxicity effect (cardiac K+ channels): poorly reversible; Restoration of heart rate after washout [5]: could not be fully restored, even after 1 h of washout treatment; Reversal of arrhythmic effect after washout [5]: unable to fully reverse the arrhythmic effect
Fc1ccc(C(c2ccc(F)cc2)N2CCN(C/C=C/c3ccccc3)CC2)cc1 [compound 1345, Flunarizine hydrochloride] | slowing of heart rate as well as arrhythmia after incubation for 25 and 30 min; also recorded: slowing of the heart as well as arrhythmia after incubation for 25 and 30 min | arryhtmia was not shown in the pattern; however, the peak was less compact compared to the control | slight slowing of the heartbeat (bradycardia); also recorded: irregular heart rhythmicity | –
CNc1ccc2oc(C[C@H]3O[C@@]4(CC[C@H]3C)O[C@H]([C@H](C)C(=O)c3ccc[nH]3)[C@H](C)C[C@H]4C)nc2c1C(=O)O [compound 1333, Antibiotic A-23187] | – | 1:1 rhythm, but the peak was more compact | ventricular fibrillation or total heart stop; also recorded: irregular heart rhythmicity | Increase of heart beat (rats): up to 50%; Heart rhythm phenotype in first step screening (end-point screen) ([2]; listed as Antibiotic A-23187): ventricular fibrillation
